Test results published in patent US10925867B2, “Immunotherapeutic dosing regimens comprising pomalidomide and an anti-CS1 antibody for treating cancer” (Bristol-Myers Squibb Company, priority 2015, dated 2021).

Assays:
multiple myeloma = conditions: Ph II, patients administered pomalidomide; cited from earlier work
[1] = test system: relapsed and refractory MM; conditions: cited from earlier work
[2] = Infusion reactions in Study CA204004; type: in vivo, human
Text: Elotuzumab can cause infusion reactions. Infusion reactions were reported in approximately 10% of patients treated with elotuzumab, lenalidomide and dexamethasone in Study CA204004 and in 7% of patients treated with elotuzumab, bortezomib and dexamethasone in Study CA204009. All reports of infusion reaction were ≤Grade 3. Grade 3 infusion reactions occurred in 1% of patients in Study CA204004 and in no patients in Study CA204009. The most common symptoms of an infusion reaction included fever, chills and hypertension. In Study CA204004, 5% of patients required interruption of the administration of elotuzumab due to infusion reaction for a median of 25 minutes and 1% of patients discontinued due to infusion reactions. In Study CA204009, 20% of patients required interruption of the administration of elotuzumab for a median of 40 minutes and none discontinued due to infusion reactions. Of the patients who experienced an infusion reaction, 70% (23/33) in Study CA204004 and 80% (4/5) in Study CA204009 had them during the first dose.

NK cells = conditions: independent of the Fc portion of the antibody; cited from earlier work
human myeloma xenografts = conditions: intraperitoneally (IP), dose-dependent; cited from earlier work
[3] = 38 subjects, including 22 with dexamethasone added

Row | Compound | median progression free survival (multiple myeloma) | overall response rate (multiple myeloma) | patients achieving VGPR or CR (multiple myeloma) | number of DLTs (Grade 4 neutropenia) ([1]; 5 mg daily Days 1-21 of 28-day cycle) | treatment-emergent Grade 3/4 anemia ([1]; 38 subjects, 2-5 mg) | treatment-emergent Grade 3/4 fatigue ([1]; 38 subjects, 2-5 mg) | treatment-emergent Grade 3/4 neutropenia ([1]; 38 subjects, 2-5 mg) | treatment-emergent Grade 3/4 thrombocytopenia ([1]; 38 subjects, 2-5 mg) | subjects achieving CR [1, 3] | subjects achieving ≥MR or better [1, 3] | subjects achieving ≥PR [1, 3] | MTD ([1]; Days 1-21 of 28-day cycle) | median duration of interruption [2] | patients discontinued due to infusion reactions [2] | patients requiring interruption of administration due to infusion reaction [2] | patients with Grade 3 infusion reactions [2] | patients with infusion reaction who had it during the first dose [2] | patients with infusion reactions ([2]; with lenalidomide and dexamethasone) | NK cell activation (NK cells) | tumor growth (human myeloma xenografts)
1 | Nc1cccc2c1C(=O)N(C1CCC(=O)NC1=O)C2=O (racemic) [Pomalidomide, (RS)-4-amino-2-(2,6-dioxo-piperidin-3-yl)-isoindole-1,3-dione] | 11.6 months | 63% | 33% | 4 | 21% | 16% | 53% | 18% | 3% | 42% | 21% | 4 mg/day |  |  |  |  |  |  |  | 
2 | Elotuzumab: humanized monoclonal IgG1 antibody directed against CS-1; VL SEQ ID NO:1, VH SEQ ID NO:2 |  |  |  |  |  |  |  |  |  |  |  |  | 25 min | 1% | 5% | 1% | 70% | approximately 10% | activate NK cells by up-regulation of CD69 and granzyme B expression | inhibits tumor growth of human myeloma xenografts
